According to publication PMC12010937, “Evaluation of FXR Activity in Pollutants Identified in Sewage Sludge and Subsequent in Vitro and in Vivo Characterization of Metabolic Effects of Triphenyl Phosphate” (Environmental Health Perspectives, 2025):
“And” between values parts separate entries of the source, which are not always exact repeats. Identical values can stand only once.

How the values were obtained:
[1] = target: T1, human FXR-LBD (6His-FXR-LBD) (Homo sapiens, UniProt Q96RI1); assay: FXR protein affinity pull-down assay; type: binding; conditions: 100 nM OCA
T1 construct: human FXR (residues 243–472) was expressed and purified as an amino-terminal 6His fusion protein; made in house; host or cells: E. coli BL21(DE3)
T1 sequence (Q96RI1 243-472 isoform Q96RI1-2): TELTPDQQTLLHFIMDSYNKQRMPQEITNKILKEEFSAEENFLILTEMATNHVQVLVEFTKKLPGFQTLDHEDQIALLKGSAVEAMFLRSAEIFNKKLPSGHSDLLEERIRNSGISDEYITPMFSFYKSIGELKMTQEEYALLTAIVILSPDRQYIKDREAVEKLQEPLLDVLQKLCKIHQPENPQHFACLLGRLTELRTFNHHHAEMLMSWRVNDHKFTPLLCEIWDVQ
From the text: The ligand binding domain (LBD) of human FXR (residues 243–472) was expressed and purified as an amino-terminal 6His fusion protein based on the prokaryotic expression vector pACYCDuet-1, and the pACYCDuet-1-6His-FXR-LBD plasmid was synthesized by the Beijing Genomics Institute (BGI). In detail, the gene encoding human FXR-LBD was first synthesized by BGI and then subcloned into the pACYCDuet-1 vector predigested with BamHI/NotI (SE0054/SE0594; SibEnzyme) according to the manufacturer’s protocol. In brief, the vector was predigested at 37°C for 15 min, subsequently mixed with the synthesized FXR-LBD cDNA and seamless assembly mix (BGI), and incubated at 52°C for 30 min. Then, the new plasmid construct pACYCDuet-1-6His-FXR-LBD was transformed into Escherichia coli Top10 Competent Cells (BGI) by heat shock transformation (the mixture was incubated on ice for 30 min, then incubated at 42°C for 90 s and transferred to ice for 3 min). Finally, the pACYCDuet-1-6His-FXR-LBD plasmid were extracted from the positive clone, confirmed by sequencing and provided by BGI. The pACYCDuet-1-6His-FXR-LBD plasmid was transformed into E. coli BL21(DE3) cells (Tiangen Biotech) by heat shock transformation (the mixture was incubated on ice for 30 min, then incubated at 42°C for 90 s, and then transferred to ice for 3 min). The transformed E. coli was grown in lysogeny broth (LB) medium at 37°C to OD600 about 0.8–1.0, and then protein expression was induced with 0.5 mM isopropyl β-d-1-thiogalactopyranoside (IPTG) at 25°C for 5 h. The cells were harvested by centrifugation at 4°C and 5,000×g for 10 min, and the harvested cells were subjected to ultrasonic disruption (5 s on, 7 s off, 150 cycles) using an ultrasonic homogenizer (Ningbo Scientz Biotechnology) and centrifugation at 4°C and 12,000×g for 1 h. […] Finally, the purity of the 6His-FXR-LBD protein was detected by sodium dodecyl sulfate-polyacrylamide gel electrophoresis (SDS-PAGE) with 4%–15% Bis-tris SDS-PAGE gel (Sangon Biotech), which was stained with Coomassie brilliant blue R250 Protein Stain Reagent (Coolaber). […]

[2] = test system: FXR; parameters: method as in PMID 12166927; conditions: read-out: EC50 (FXR agonist); cited from earlier work
[3] = target: T2, human FXR-LBD (GST-FXR-LBD) (Homo sapiens, UniProt Q96RI1); assay: HTRF coactivator recruitment assay, antagonist mode (in the presence of 50 μM CDCA); type: biochemical; conditions: FXR antagonists (Figure S3B), replicates
T2 construct: the human FXR-LBD (residues 234–472) was expressed as a GST fusion protein GST-FXR-LBD; made in house; host or cells: E. coli BL21(DE3)
T2 sequence (Q96RI1 234-472 isoform Q96RI1-2): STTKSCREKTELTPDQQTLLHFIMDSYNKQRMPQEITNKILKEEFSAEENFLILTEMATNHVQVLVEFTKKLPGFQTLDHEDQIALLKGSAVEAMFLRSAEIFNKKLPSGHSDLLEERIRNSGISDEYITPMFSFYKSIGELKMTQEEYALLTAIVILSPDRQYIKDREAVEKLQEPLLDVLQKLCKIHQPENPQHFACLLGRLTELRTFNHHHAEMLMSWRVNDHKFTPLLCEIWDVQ

[4] = target: T2, human FXR-LBD (GST-FXR-LBD); assay: HTRF coactivator recruitment assay, agonist mode; type: biochemical; conditions: FXR agonists (Figure S3A), replicates

CC[C@H]1[C@@H](O)[C@@H]2[C@H](CC[C@]3(C)[C@@H]([C@H](C)CCC(=O)O)CC[C@@H]23)[C@@]2(C)CC[C@@H](O)C[C@@H]12 [OCA, obeticholic acid]
Fold change of OCA recovery, purified vs denatured FXR-LBD [1]: […] | Recovery of OCA pulled down by control protein ([1]; boiled inactivated (denatured) FXR-LBD as negative control, n=3): 4.69% and 4.09% and 4.45% | Recovery of OCA pulled down by the FXR-LBD protein ([1]; purified 6His-FXR-LBD, n=3): 91.28% and 89.1% and 85.93% | EC50 [2]: […] | Ratio of 665nm/615nm ([3]; 0.0009 μM): […] | Ratio of 665nm/615nm ([3]; 0.008 μM): […] | Ratio of 665nm/615nm ([3]; 0.025 μM): […] | Ratio of 665nm/615nm ([3]; 0.076 μM): […] | Ratio of 665nm/615nm ([3]; 0.23 μM): […] | Ratio of 665nm/615nm ([3]; 0.69 μM): […] | Ratio of 665nm/615nm ([3]; 2.05 μM): […] | Ratio of 665nm/615nm ([3]; 18.50 μM): […] | Ratio of 665nm/615nm ([3]; 56.00 μM): […] | Ratio of 665nm/615nm ([3]; 167.00 μM): […] | Ratio of 665nm/615nm ([4]; 0.008 μM): […] | Ratio of 665nm/615nm ([4]; 0.025 μM): […] | Ratio of 665nm/615nm ([4]; 0.076 μM): […] | Ratio of 665nm/615nm ([4]; 0.23 μM): […] | Ratio of 665nm/615nm ([4]; 0.69 μM): […] | Ratio of 665nm/615nm ([4]; 2.05 μM): […] | Ratio of 665nm/615nm ([4]; 18.50 μM): […] | Ratio of 665nm/615nm ([4]; 56.00 μM): […] | Ratio of 665nm/615nm ([4]; 167.00 μM): […]
